From patent US11512074B2, “Substituted diamino heterocyclic carboxamide compound and a composition containing the compound and use thereof” (Shenzhen TargetRx, Inc., priority 2018, dated 2022)

Columns and labels:
Type in all cases: cell-based
MV-4-11 cells = assay: Inhibition of cell MV-4-11 proliferation (CTG assay); conditions: Homo sapiens, MV4-11, 72 hours
Source text: (§1) Cell MV-4-11 (ATCC, Cat. No. CRL-9591), cell MOLM-13 (COBIOER, Cat. No. CBP60678), RPMI-1640 (GIBCO, Cat. No. A10491-01), penicillin-streptomycin (GIBCO, Cat. No. 15140-122), fetal bovine serum (GIBCO, Cat. No. 10099-141), phosphate buffer solution PBS (GIBCO, Cat. No. 10010-031), DMSO (Sigma, Cat. No. D8418-1L), CelltiterGlo Assay kit (CTG) (Promega, Cat. No. G7573), 96-well plate with transparent flat bottom and black walls (PerkinElmer, Cat. No. 6005680-50), plate shaker (QILINBEIER, Cat. No. B-9002), centrifuge (Eppendorf, Cat. No. 5804R), CO2 incubator (Thermo Scientific, Cat. No. 371), microscope (OLYMPUS Cat. No. CKX41), multi-plate reader (PerkinElmer, Cat. No. EnVision).
(§2) (2) Preparation of Cell Suspension • a) The medium was collected from the culture bottle and centrifuged at 1000 rpm for 5 min. • b) The supernatant was discarded, and the cells were resuspended in medium containing 10% fetal bovine serum, and counted to prepare a cell suspension (cell viability was greater than 90%). • c) The cell suspension was added into a 96-well plate, with […] in each well, namely 5000 MV-4-11 cells/well; 5000 MOLM-13 cells/well. • d) The cell plate was cultured overnight in a 37° C., 5% CO2 incubator.
(§3) Dilution of Compounds in DMSO: • a) MV-4-11 cells: The compounds were diluted with DMSO from 10 mM to 60 uM, and then subjected to a 3-fold serial gradient dilution in DMSO from 60 uM, resulting in 9 concentrations. • b) MOLM-13 cells: The compounds were diluted with DMSO from 10 mM to 200 uM, and then subjected to a 3-fold serial gradient dilution in DMSO from 200 uM, resulting in 9 concentrations. • c) Compound Taxol was diluted with DMSO from 10 mM to 200 uM, and then subjected to a 3-fold serial gradient dilution in DMSO from 200 uM, resulting in 9 concentrations.
(§4) (4) Treatment of Cells with Compounds (after the Overnight Incubation of the Cell Plate) • a) Each well was replenished with 99 μl of growth medium containing 10% FBS, and then 1 μl of the diluted compound was added to the well. The concentration of DMSO was 0.5%. • b) Concentrations of the tested compounds were: MV-4-11 cells: 300, 100, 33.3, 11.1, 3.7, 1.23, 0.41, 0.137, 0.046, 0 [nM]. • MOLM-13 cells: 1000, 333.3, 111.1, 37.04, 12.35, 4.1, 1.37, 0.46, 0.15, 0 [nM]. • c) Concentrations of control compound Taxol were: 1000, 333.3, 111.1, 37.04, 12.35, 4.12, 1.37, 0.46, 0.15, 0 [nM]. • d) The cell plate was placed in the incubator for 72 hours.
(§5) (5) CTG Assay • a) The test plate was placed at room temperature and equilibrated for 30 minutes, and 60 μl of the culture medium was discarded. • b) 60 μl of CTG reagent (CelltiterGlo kit) was added, and the plate was placed on a rapid plate shaker to shake for 2 min, and then let it stand at room temperature for 20 min. • c) Envision was used to read the values.
(§6) IC50 values were calculated using GraphPad Prism 6 software. The IC50 (half inhibitory concentration) values of the compounds were obtained by the following non-linear fitting formula. Y=Bottom+(Top−Bottom)/(1+10^((Log IC50−X)*HillSlope)) • X: Log value of the compound concentration • Y: Inhibition rate (% inhibition) % inhibition (inhibition rate)=100*(value of the High Control-value of the test compound well)/(value of the High Control-value of the Low Control)

MOLM-13 cells = assay: Inhibition of cell MOLM-13 proliferation (CTG assay); conditions: Homo sapiens, 72 hours, read-out: MOLM-1 IC50
Source text: as §1, §2, §3, §4, §5, §6

Ba/F3 parental cells = assay: Inhibition of Ba/F3 parental cell proliferation (CTG); conditions: Mus musculus, BaF3, 72 hours, with IL-3
Description: (§7) Cell lines were cultured under the condition of 37° C., 5% CO2 and 95% humidity: cell line Ba/F3 parental (suspended, 3000 cells/well, medium was RPMI-1640+10% FBS+8 ng/ml IL-3), cell line Ba/F3 FLT3-ITD (suspended, 3000 cells/well, medium was RPMI-1640+10% FBS)
(§8) Reagents and materials: Fetal bovine serum (FBS, GBICO, Cat. No. 10099-141), CellTiter-Glo® Luminescent Cell Viability Assay (Promega, Cat. No. G7572), 96-well plate with transparent flat bottom and black walls (Corning®, Cat. No. 3603), control compound AC220 (Selleck, Cat. No. S1526).
(§9) Cell Culture and Inoculation: • 1. Cells in the logarithmic growth phase were harvested and counted using a platelet counter. The cell viability was determined by trypan blue exclusion method to ensure that the cell viability was greater than 90%; • 2. The cell concentration was adjusted and 90 μL of the cell suspension was added into a 96-well plate respectively; • 3. The cells in the 96-well plate were cultured overnight under the condition of 37° C., 5% CO2 and 95% humidity.
(§10) Drug Dilution and Dosing: • 1. The 10-fold drug solutions were prepared with a maximum concentration of 100 μM, which was diluted using a 3.16-fold serial gradient dilution, resulting in 9 concentrations. 10 μL of the drug solutions was added to each well of the 96-well plate inoculated with Ba/F3 parental cells; and each drug concentration was set in triplicate. • 2. The 10-fold drug solutions were prepared with a maximum concentration of 10 μM, which was diluted using a 3.16-fold serial gradient dilution, resulting in 9 concentrations. 10 μL of the drug solutions was added to each well of the 96-well plate inoculated with Ba/F3 FLT3-ITD cells; and each drug concentration was set in triplicate. • 3. The cells in the 96-well plate with drugs were cultured at 37° C., 5% CO2 and 95% humidity for 72 hours, and then CTG analysis was carried out.
(§11) Plate Reading at the End Point: • 1. CTG reagent was thawed and the cell plate was equilibrated to room temperature for 30 minutes; • 2. Equal volume of the CTG solution was added to each well; • 3. The cell plate was shaked on the orbital shaker for 5 minutes to lyse the cells; • 4. The cell plate was placed at room temperature for 20 minutes to stabilize the cold light signal; • 5. The cold light values were read.
(§12) GraphPad Prism 8.0 software was used to analyze the data, and the data was fitted using the non-linear S-curve regression to get a dose-effect curve, and IC50 values were calculated. Cell viability (%)=(Lum of test drug−Lum of medium control)/(Lum of cell control−Lum of medium control)×100%.

Ba/F3 FLT3-ITD cells = assay: Inhibition of Ba/F3 FLT3-ITD cell proliferation (CTG); conditions: 72 hours, read-out: BaF3 [FLT3-ITD] IC50
Description: as §7, §8, §9, §10, §11, §12

Row | IC50 (MV-4-11 cells) | IC50 (MOLM-13 cells) | IC50 (Ba/F3 FLT3-ITD cells) | Compound | IC50 (Ba/F3 parental cells)
1 | 0.00217 µM | 0.015 µM | 0.0465 µM | [2H]C([2H])([2H])Oc1cc(Nc2nc(NC3CCOCC3)c(CC)nc2C(N)=O)ccc1N1CCC(N2CCN(C)CC2)CC1 [Compound T-1, 6-ethyl-3-((3-(methoxy-d3)-4-(4-(4-methylpiperazin-1-yl)piperidin-1-yl)phenyl)amino)-5-((tetrahydro-2H-pyran-4-yl)amino)pyrazine-2-carboxamide] | 9.72 µM
2 | 0.00235 µM | 0.0143 µM | 0.0513 µM | [2H]C([2H])([2H])N1CCN(C2CCN(c3ccc(Nc4nc(NC5CCOCC5)c(CC)nc4C(N)=O)cc3OC)CC2)CC1 [Compound T-2, 6-ethyl-3-((3-methoxy-4-(4-(4-(methyl-d3)piperazin-1-yl)piperidin-1-yl)phenyl)amino)-5-((tetrahydro-2H-pyran-4-yl)amino)pyrazine-2-carboxamide] | 7.16 µM
3 | 0.00225 µM | 0.0142 µM | 0.089 µM | [2H]C([2H])([2H])Oc1cc(Nc2nc(NC3CCOCC3)c(CC)nc2C(N)=O)ccc1N1CCC(N2CCN(C([2H])([2H])[2H])CC2)CC1 [Compound T-3, 6-ethyl-3-((3-(methoxy-d3)-4-(4-(4-(methyl-d3)piperazin-1-yl)piperidin-1-yl)phenyl)amino)-5-((tetrahydro-2H-pyran-4-yl)amino)pyrazine-2-carboxamide] | 5.37 µM
4 | 0.00201 µM | 0.012 µM | 0.0944 µM | [2H]C([2H])([2H])N1CCN(C2CCN(c3ccc(Nc4nc(NC5CCOCC5)c(C([2H])([2H])C([2H])([2H])[2H])nc4C(N)=O)cc3OC)CC2)CC1 [Compound T-5, 6-(ethyl-d5)-3-((3-methoxy-4-(4-(4-(methyl-d3)piperazin-1-yl)piperidin-1-yl)phenyl)amino)-5-((tetrahydro-2H-pyran-4-yl)amino)pyrazine-2-carboxamide] | 9.29 µM
5 | 0.00217 µM |  | 0.085 µM | [2H]C1([2H])N(C)C([2H])([2H])C([2H])([2H])N(C2CCN(c3ccc(Nc4nc(NC5CCOCC5)c(CC)nc4C(N)=O)cc3OC)CC2)C1([2H])[2H] [Compound T-8, 6-ethyl-3-((3-methoxy-4-(4-(4-methylpiperazin-1-yl-2,2,3,3,5,5,6,6-d8)piperidin-1-yl)phenyl)amino)-5-((tetrahydro-2H-pyran-4-yl)amino)pyrazine-2-carboxamide] | 6.87 µM
6 | 0.00203 µM | 0.0145 µM | 0.072 µM | [2H]C([2H])([2H])N1C([2H])([2H])C([2H])([2H])N(C2CCN(c3ccc(Nc4nc(NC5CCOCC5)c(CC)nc4C(N)=O)cc3OC)CC2)C([2H])([2H])C1([2H])[2H] [Compound T-9, 6-ethyl-3-((3-methoxy-4-(4-(4-(methyl-d3)piperazin-1-yl-2,2,3,3,5,5,6,6-d8)piperidin-1-yl)phenyl)amino)-5-((tetrahydro-2H-pyran-4-yl)amino)pyrazine-2-carboxamide] | > 10 µM
7 | 0.00223 µM | 0.0143 µM |  | CCc1nc(C(N)=O)c(Nc2ccc(N3CCC(N4CCN(C)CC4)CC3)c(OC)c2)nc1NC1CCOCC1 [Gilteritinib, 6-ethyl-3-((3-methoxy-4-(4-(4-methylpiperazin-1-yl)piperidin-1-yl)phenyl)amino)-5-((tetrahydro-2H-pyran-4-yl)amino)pyrazine-2-carboxamide, reference compound] | 
